Species on record: Rattus norvegicus
Experiment: Open TG-GATES - Regimen: Single
Type: toxicity, organism-based, Sprague-Dawley
Parameters: regimen Single, gender Male, age 6 weeks
Details: in vivo, po, 1 mg/kg, route gavage, dose level Low; for APTT / Bas / Eos / Fbg / Hb / Ht / Lym / MCH / MCHC / MCV / Mono / Neu / PT / Plat / RBC / Ret / WBC: tissue Blood; for KIDNEY_L / KIDNEY_R / KIDNEY_TOTAL: tissue Kidney; for LIVER: tissue Liver; for A/G / ALP / ALT / AST / BUN / CRE / Ca / Cl / DBIL / GLC / IP / K / LDH / Na / PL / RALB / TBIL / TC / TG / TP / gamma-GTP: tissue Plasma

What does the source list for O=NN(CCCl)C(=O)NC1CCCCC1 [LOMUSTINE]?
TERMINAL_BW (9 h): 200.6 g; APTT (9 h): 16.5 s; Bas (9 h): 0%; Eos (9 h): 0.6%; Fbg (9 h): 220.2 mg/dL; Hb (9 h): 13.3 g/dL; Ht (9 h): 40.4%; Lym (9 h): 78.6%; MCH (9 h): 21.9 pg; MCHC (9 h): 32.9%; MCV (9 h): 66.4 fL; Mono (9 h): 6.6%; Neu (9 h): 14.2%; PT (9 h): 12.4 s; Plat (9 h): 99.4 x10_4/uL; RBC (9 h): 608 x10_4/ul; Ret (9 h): 9%; WBC (9 h): 86.7 x10_2/uL; KIDNEY_L (9 h): 0.9 g; KIDNEY_R (9 h): 0.9 g; KIDNEY_TOTAL (9 h): 1.8 g; LIVER (9 h): 8.6 g; A/G (9 h): 2.5; ALP (9 h): 787 IU/L; ALT (9 h): 32 IU/L; AST (9 h): 62.6 IU/L; BUN (9 h): 8.8 mg/dL; CRE (9 h): 0.5 mg/dL; Ca (9 h): 10.6 mg/dL; Cl (9 h): 105.8 meq/L; DBIL (9 h): 0.036 mg/dL; GLC (9 h): 184.6 mg/dL; IP (9 h): 10.2 mg/dL; K (9 h): 4.6 meq/L; LDH (9 h): 76.6 IU/L; Na (9 h): 138.4 meq/L; PL (9 h): 127.4 mg/dL; RALB (9 h): 3.9 g/dL; TBIL (9 h): 0.4 mg/dL; TC (9 h): 72.4 mg/dL; TG (9 h): 39 mg/dL; TP (9 h): 5.5 g/dL; gamma-GTP (9 h): 4.2 IU/L; TERMINAL_BW (24 h): 218.5 g; APTT (24 h): 18.1 s; Bas (24 h): 0%; Eos (24 h): 1%; Fbg (24 h): 201 mg/dL; Hb (24 h): 12.6 g/dL; Ht (24 h): 37.9%; Lym (24 h): 80.8%; MCH (24 h): 21.8 pg; MCHC (24 h): 33.4%; MCV (24 h): 65.3 fL; Mono (24 h): 5.8%; Neu (24 h): 12.6%; PT (24 h): 12.2 s; Plat (24 h): 94.4 x10_4/uL; RBC (24 h): 580.2 x10_4/ul; Ret (24 h): 9%; WBC (24 h): 138.2 x10_2/uL; KIDNEY_L (24 h): 1 g; KIDNEY_R (24 h): 1 g; KIDNEY_TOTAL (24 h): 2 g; LIVER (24 h): 10.7 g; A/G (24 h): 2.2; ALP (24 h): 961 IU/L; ALT (24 h): 37.6 IU/L; AST (24 h): 68.4 IU/L; BUN (24 h): 15.8 mg/dL; CRE (24 h): 0.5 mg/dL; Ca (24 h): 11.1 mg/dL; Cl (24 h): 104.6 meq/L; DBIL (24 h): 0.018 mg/dL; GLC (24 h): 185.4 mg/dL; IP (24 h): 7.6 mg/dL; K (24 h): 4.8 meq/L; LDH (24 h): 100.6 IU/L; Na (24 h): 138 meq/L; PL (24 h): 144.6 mg/dL; RALB (24 h): 3.9 g/dL; TBIL (24 h): 0.3 mg/dL; TC (24 h): 76 mg/dL; TG (24 h): 98 mg/dL; TP (24 h): 5.7 g/dL; gamma-GTP (24 h): 1.8 IU/L

— ChEMBL document CHEMBL3885861, “Open TG-GATES”
